Reference: patent US20250296953A1, “3,4-THIAZOLO-STEROIDS AND METHODS OF MAKING AND USING THE SAME” (Arkansas State University - Jonesboro, priority 2018, published 2025)

What was measured:
[1] = tested on: 60 different human tumor cell lines; assay: NCI Development Therapeutics Program 60 cell line screen, one dose; format: cell-based
SF-539 = assay: NCI 60 one dose screen; format: cell-based, human; conditions: one dose; CNS Cancer; SF-539
glioblastoma (SF-295) = assay: NCI 60 five dose screen; conditions: SF-295 (CNS Cancer), five dose

“(1S,2R,13R,14S,18S)-7-(2,4-dimethylanilino)-2,18-dimethyl-6-thia-8-azapentacyclo[11.7.0.02,10.05,9.014,18]icosa-5(9),7,10-trien-17-one [IIa.14]” was tested, and the “Growth Percent” value ([1]; Breast Cancer, BT-549) was 2.85%, the “Growth Percent” value ([1]; Breast Cancer, HS 578T) was 45.27% and the “Growth Percent” value ([1]; Breast Cancer, MCF7) was 18.18%. For the same substance, the “Growth Percent” value ([1]; Breast Cancer, MDA-MB-231/ATCC) was 26.55%, the “Growth Percent” value ([1]; Breast Cancer, MDA-MB-468) was 16.97% and the “Growth Percent” value ([1]; Breast Cancer, T-47D) was 41.81%. The “Growth Percent” value ([1]; CNS Cancer, SF-268) was 46.93%, the “Growth Percent” value ([1]; CNS Cancer, SNB-19) was 44.03% and the “Growth Percent” value ([1]; CNS Cancer, SNB-75) was 35.14%. The “Growth Percent” value ([1]; CNS Cancer, U251) was 18.36%, the “Growth Percent” value ([1]; Colon Cancer, COLO 205) was 62.35% and the “Growth Percent” value ([1]; Colon Cancer, HCC-2998) was 84.48%. For the same substance, the “Growth Percent” value ([1]; Colon Cancer, HCT-116) was −27.32%, the “Growth Percent” value ([1]; Colon Cancer, HT29) was 3.81% and the “Growth Percent” value ([1]; Colon Cancer, KM12) was 44.55%. The “Growth Percent” value ([1]; Colon Cancer, SW-620) was 4.35%, the “Growth Percent” value ([1]; Leukemia, CCRF-CEM) was 7.99% and the “Growth Percent” value ([1]; Leukemia, HL-60(TB)) was 9.29%. The “Growth Percent” value ([1]; Leukemia, K-562) was 5.33%, the “Growth Percent” value ([1]; Leukemia, MOLT-4) was −0.31% and the “Growth Percent” value ([1]; Leukemia, RPMI-8226) was −3.52%. For the same substance, the “Growth Percent” value ([1]; Leukemia, SR) was −0.63%, the “Growth Percent” value ([1]; Melanoma, LOX IMVI) was −16.56% and the “Growth Percent” value ([1]; Melanoma, M14) was 37.85%. For the same substance, the “Growth Percent” value ([1]; Melanoma, MALME-3M) was 27.34%, the “Growth Percent” value ([1]; Melanoma, MDA-MB-435) was 16.89% and the “Growth Percent” value ([1]; Melanoma, SK-MEL-2) was 72.63%. The “Growth Percent” value ([1]; Melanoma, SK-MEL-5) was 51.38%, the “Growth Percent” value ([1]; Melanoma, SK-MEL-28) was 50.77% and the “Growth Percent” value ([1]; Melanoma, UACC-62) was 39.03%. For the same substance, the “Growth Percent” value ([1]; Melanoma, UACC-257) was 65.55%, the “Growth Percent” value ([1]; Non-small Cell Lung Cancer, A549/ATCC) was 61.13% and the “Growth Percent” value ([1]; Non-small Cell Lung Cancer, EKVX) was 51.95%. The “Growth Percent” value ([1]; Non-small Cell Lung Cancer, HOP-62) was 45.74%, the “Growth Percent” value ([1]; Non-small Cell Lung Cancer, HOP-92) was 65.93% and the “Growth Percent” value ([1]; Non-small Cell Lung Cancer, NCI-H23) was 54.16%. For the same substance, the “Growth Percent” value ([1]; Non-small Cell Lung Cancer, NCI-H226) was 72.85%, the “Growth Percent” value ([1]; Non-small Cell Lung Cancer, NCI-H322M) was 79.50% and the “Growth Percent” value ([1]; Non-small Cell Lung Cancer, NCI-H460) was 45.78%. The “Growth Percent” value ([1]; Ovarian Cancer, IGROV1) was 17.68%, the “Growth Percent” value ([1]; Ovarian Cancer, NCI/ADR-RES) was 53.35% and the “Growth Percent” value ([1]; Ovarian Cancer, OVCAR-3) was −6.33%. For the same substance, the “Growth Percent” value ([1]; Ovarian Cancer, OVCAR-4) was 59.62%, the “Growth Percent” value ([1]; Ovarian Cancer, OVCAR-5) was 59.08% and the “Growth Percent” value ([1]; Ovarian Cancer, OVCAR-8) was 31.69%. For the same substance, the “Growth Percent” value ([1]; Ovarian Cancer, SK-OV-3) was 78.49%, the “Growth Percent” value ([1]; Prostate Cancer, DU-145) was 25.93% and the “Growth Percent” value ([1]; Prostate Cancer, PC-3) was 15.83%. For the same substance, the “Growth Percent” value ([1]; Renal Cancer, 786-0) was 5.54%, the “Growth Percent” value ([1]; Renal Cancer, A498) was 66.68% and the “Growth Percent” value ([1]; Renal Cancer, ACHN) was 32.28%. The “Growth Percent” value ([1]; Renal Cancer, CAKI-1) was 49.83%, the “Growth Percent” value ([1]; Renal Cancer, RXF 393) was 28.78% and the “Growth Percent” value ([1]; Renal Cancer, SN12C) was 26.21%. The “Growth Percent” value ([1]; Renal Cancer, TK-10) was 63.32%, the “Growth Percent” value ([1]; Renal Cancer, UO-31) was 34.25% and the “Growth Percent” value (SF-539) was 8.46%. The GI50 (glioblastoma (SF-295)) was 1.81 µM and the TGI (glioblastoma (SF-295)) was 4.10E−6.
